The values that follow come from patent US20230061083A1, “KRAS G12C INHIBITOR COMPOUND AND USE THEREOF” (Evopoint Biosciences Co., Ltd., priority 2019, published 2023).

Data set [1] is described as follows: Plasma protein binding (PPB), RED plate dialysis, mouse plasma. The conditions noted are these: 37° C., read-out: PPB (% free state) M. Format: in vitro ADME. Here is the method: (§1) Human (H), Rat (R) and Mouse (M) Plasma Protein Binding (PPB)
(§2) A test compound and a positive control were each mixed with blank plasma to a final concentration of 1 μM. The mixture was added to a RED plate plasma sample chamber, followed by addition of a dialysis buffer in the buffer chamber. The sample was prepared in triplicate for each compound. The chambers were sealed, and the plate was incubated at 37° C. with shaking at 60 rpm for 5 h. After incubation, the samples were transferred out of the plasma chamber and the buffer chamber and treated as shown in Table 5. After centrifugation at 5594 g for 15 min, the supernatant was collected and analyzed by LC/MS/MS.
(§3) The compound concentration in each sample was expressed in terms of the ratio between peak areas (ratio of peak area of compound to peak area of internal standard) by mass spectrometry analysis, and the plasma protein binding was calculated according to the following formulas.
(§4) % free state=(buffer chamber peak area ratio/plasma chamber peak area ratio)×100%
(§5) % bound state=100%−% free state

For data set [2], the target named is KRAS G12C protein (GDP-KRAS-4B-G12C) (Homo sapiens, UniProt P01116, G12C). The experiment in a line: Assay for binding rate to KRAS G12C protein by LC-MS method. Particulars: 3 uM compound. On the procedure:
Assay for Binding Rate to KRAS G12C Protein by LC-MS Method
A 10 mM stock solution of a test compound in DMSO was prepared. […] An equal volume of GDP buffer (20 mM Hepes, pH 7.5, 50 mM NaCl, 0.5 mM MgCl2, 10 mM EDTA, 2 mM DTT, GDP) was added to prepare KRASG12C protein loaded with GDP.
After incubation at room temperature for 5 min and 30 min, the reaction was terminated by addition of 5 μL of 5% formic acid. After being centrifuged at 15,000 rpm for 10 min, the mixture was subjected to LC-MS analysis and data analysis.
The percent binding of a test compound to KRASG12C protein was calculated as: Percent binding to KRAS G12C (%)=peak height of conjugate of test compound and KRAS G12C protein/[peak height of conjugate of test compound and KRAS G12C protein+peak height of free KRAS G12C protein] x 100.

Data set [3] is described as follows: Plasma protein binding (PPB), RED plate dialysis, rat plasma. It counts as in vitro ADME. Particulars: 37° C., read-out: PPB (% free state) R. On the procedure:
as §1, §2, §3, §4, §5

The subject of a further data set is plasma proteins. The data set can be described thus: Plasma protein binding (PPB), RED plate dialysis, human plasma. Format: in vitro ADME. The conditions noted are these: versus SZ-014138. Here is the method: as §1, §2, §3, §4, §5
Experiment in data set [4]: as above
Format: in vitro ADME. Particulars: 1 μM, 37° C., 5 h, read-out: PPB (% free state) H. On the procedure: as §1, §2, §3, §4, §5

The test system of data set [5] is ERK phosphorylation in H358 cells. The experiment in a line: In-cell western blot assay for ERK phosphorylation in H358 cells. Format: cell-based. Particulars: Homo sapiens, NCI-H358, 10000 nM to 0.051 nM, 3-fold dilution, read-out: H358 p-ERK IC50. On the procedure:
In-Cell Western Blot Assay for ERK Phosphorylation in H358 Cells
H358 cells were thawed and pre-cultured for 3 days to be in a good state (RPMI 1640+10% FBS+1% P/S). The cells were plated on to a 384-well plate, and a test compound, positive control compounds (AMG510 and isomers thereof) and a negative control were added. The compound was at concentrations from 10000 nM to 0.051 nM. 3-fold dilution was performed. The mixture was well mixed and incubated at 37° C. and 5% CO2. The cells were washed with PBS and suspended in methanol. After another washing with PBS, a blocking buffer was added. After 1 h of blocking at room temperature, a primary antibody mixture (rabbit anti pERK, mouse anti GAPDH) was added, followed by overnight incubation at 4° C. The cells were washed 3 times with PBST, and a secondary antibody mixture (goat anti rabbit 800CW and goat anti mouse 680RD) was added, followed by incubation at room temperature in the dark. The 384-well plate was reversed and centrifuged at 1000 rpm for 1 min, and read on an Odyssey CLx fluorescence imaging system for fluorescence signal values, which was corrected using DMSO and ARS1620. The specific calculation is as follows:
Relative Signal=Signal Value(total channel 800)/Signal Value(total channel 700)
Relative pERK=(Sample−Ave_L)/(Ave_H−Ave_L).
The IC50 values of the compounds were calculated using a four-parameter fitting algorithm, specifically as follows:
Y=Bottom+(Top−Bottom)/(1+10^((Log IC50−X)×HillSlope))

For the molecule `C=CC(=O)N1CCN(c2nc(=O)n(-c3c(C(C)C)ncnc3C(C)C)c3c2cc(F)c(-c2c(F)cccc2F)[n+]3[O-])[C@@H](C)C1` [SZ-014053], the fraction unbound at 5 h, 1 μM in data set [1] was found to be 0.377; in data set [3], 0.616; in data set [4], 0.587. Also, the “Binding rate to KRAS G12C protein (LC-MS POC, %) 3 uM/5 min” value in data set [2] (5 min incubation at room temperature) is given as 85.6%. In addition, the “Binding rate to KRAS G12C protein (LC-MS POC, %) 3 uM/30 min” value in data set [2] (30 min incubation at room temperature) is 100.0%. Further, in the data set with plasma proteins, the “molar concentration not bound to plasma proteins, times higher than reference compound SZ-014138” value was “no less than 4 times”. For the same molecule, the IC50 in data set [5] is 0.041 µM.

The IC50 is the concentration needed to halve the response being measured.
